Measured values taken from US10173983B2, “Fungicidal pyridylamidines” (Syngenta Participations AG, priority 2014, dated 2019).

What was measured:
Type in all cases: in vivo
[1] = tested on: Blumeria graminis f. Sp. tritici (Erysiphe graminis f. sp. tritici); assay: Blumeria graminis f. sp. tritici / wheat / leaf disc preventative (powdery mildew on wheat); conditions: foliar, wheat leaf segments cv. Kanzler, inoculated 1 day after application, assessed 6-8 days after application, compared to untreated, read-out: disease control
Experimental: Blumeria graminis f. Sp. tritici (Erysiphe graminis f. sp. tritici)/Wheat/Leaf Disc Preventative (Powdery Mildew on Wheat) Wheat leaf segments cv. Kanzler were placed on agar in a multiwell plate (24-well format) and sprayed with the formulated test compound diluted in water. The leaf disks were inoculated by shaking powdery mildew infected plants above the test plates 1 day after application. The inoculated leaf disks were incubated at 20° C. and 60% rh under a light regime of 24 h darkness followed by 12 h light/12 h darkness in a climate chamber and the activity of a compound was assessed as percent disease control compared to untreated when an appropriate level of disease damage appears on untreated check leaf segments (6-8 days after application). The following compounds gave at 200 ppm give at least 80% disease control in this test when compared to untreated control leaf disks under the same conditions, which show extensive disease development: […]

Phakopsora pachyrhizi = Phakopsora pachyrhizi on soybean, preventive treatment; conditions: 264 h, 1 day preventive, triazole tolerant soybean rust strain, evaluated 11 days after application, compared to untreated, read-out: disease control
Experimental: Phakopsora pachyrhizi on Soybean, Preventive Treatment
The compound activity was tested under 1 day preventive conditions. Soybean plants with a fully enfolded first trifoliate leaf were sprayed with a track sprayer and 50 l/ha spray volume with the test compounds, either solo or in tankmix as shown in the table below. 1 day after application leaf discs were cut from the first trifoliate leaf and placed in multiwell plates on water-agar. 5 leaf discs per treatment where infested with spores of a triazole tolerant soybean rust strain. The multiwell plates where sealed and placed in an incubator 48 h in darkness and 12 h light/dark cycle afterwards. Rust infestation on leaf discs was evaluated visually 11 days after application and average activity calculated in relation to disease severity on untreated check leaf discs.
The following compounds gave at 200 ppm gave at least 80% disease control in this test when compared to untreated control leaf disks under the same conditions, which show extensive disease development: […]

[2] = tested on: Puccinia recondita f. sp. tritici; assay: Puccinia recondita f. sp. tritici / wheat / leaf disc preventative (brown rust); conditions: foliar, 168 h, wheat leaf segments cv. Kanzler, inoculated 1 day after application, assessed 7-9 days after application, compared to untreated, read-out: disease control
Experimental: Puccinia recondita f. sp. tritici/Wheat/Leaf Disc Preventative (Brown Rust) Wheat leaf segments cv. Kanzler were placed on agar in multiwell plates (24-well format) and sprayed with the formulated test compound diluted in water. The leaf disks were inoculated with a spore suspension of the fungus 1 day after application. The inoculated leaf segments were incubated at 19° C. and 75% rh under a light regime of 12 h light/12 h darkness in a climate cabinet and the activity of a compound was assessed as percent disease control compared to untreated when an appropriate level of disease damage appears in untreated check leaf segments (7-9 days after application). The following compounds gave at 200 ppm gave at least 80% disease control in this test when compared to untreated control leaf disks under the same conditions, which show extensive disease development: […]

[3] = tested on: Puccinia recondita f. sp. tritici; assay: Puccinia recondita f. sp. tritici / wheat / leaf disc curative (brown rust); conditions: foliar, wheat leaf segments cv. Kanzler, compound applied 1 day after inoculation, assessed 6-8 days after application, compared to untreated, read-out: disease control
Experimental: Puccinia recondita f. sp. tritici/Wheat/Leaf Disc Curative (Brown Rust) Wheat leaf segments cv. Kanzler are placed on agar in multiwell plates (24-well format). The leaf segments are inoculated with a spore suspension of the fungus. Plates were stored in darkness at 19° C. and 75% rh. The formulated test compound diluted in water was applied 1 day after inoculation. The leaf segments were incubated at 19° C. and 75% rh under a light regime of 12 h light/12 h darkness in a climate cabinet and the activity of a compound was assessed as percent disease control compared to untreated when an appropriate level of disease damage appears in untreated check leaf segments (6-8 days after application). The following compounds gave at 200 ppm gave at least 80% disease control in this test when compared to untreated control leaf disks under the same conditions, which show extensive disease development: […]

Measured: pest or weed control at 200 ppm

CCN(C)C=Nc1cc(Cl)c(OC(C)COc2ccccc2)nc1C (centres unmarked) [Q.025, N′-[5-chloro-2-methyl-6-(1-methyl-2-phenoxy-ethoxy)-3-pyridyl]-N-ethyl-N-methyl-formamidine]
≥ 80%: all assays above

CCN(C)C=Nc1cc(Br)c(OC(C)COc2ccc(Cl)cc2)nc1C (centres unmarked) [Q.026, N′-[5-bromo-6-[2-(4-chlorophenoxy)-1-methyl-ethoxy]-2-methyl-3-pyridyl]-N-ethyl-N-methyl-formamidine]
≥ 80%: all assays above

CCN(C)C=Nc1cc(Br)c(OC(C)COc2ccccc2)nc1C (centres unmarked) [Q.028, N′-[5-bromo-2-methyl-6-(1-methyl-2-phenoxy-ethoxy)-3-pyridyl]-N-ethyl-N-methyl-formamidine]
≥ 80%: all assays above

CCCOCC(C)Oc1nc(C)c(N=CN(C)C2CC2)cc1Br (centres unmarked) [Q.029, N′-[5-bromo-2-methyl-6-(1-methyl-2-propoxy-ethoxy)-3-pyridyl]-N-cyclopropyl-N-methyl-formamidine]
≥ 80%: all assays above

CCCOCC(C)Oc1nc(C)c(N=CN2CCC2)cc1Br (centres unmarked) [Q.030, 1-(azetidin-1-yl)-N-[5-bromo-2-methyl-6-(1-methyl-2-propoxy-ethoxy)-3-pyridyl]methanimine]
≥ 80%: all assays above
